In US10683279B2, “Apoptosis signal-regulating kinase 1 inhibitors and methods of use thereof” (Enanta Pharmaceuticals, Inc., priority 2017, dated 2020) one finds IC50 data, which are given here for 18 compounds.

What is called IC50 is the point on the concentration scale where inhibition reaches its midpoint. A higher IC50 goes with a need for much substance.

Structures are written as SMILES.

ASK1, sequence (Q99683 whole entry): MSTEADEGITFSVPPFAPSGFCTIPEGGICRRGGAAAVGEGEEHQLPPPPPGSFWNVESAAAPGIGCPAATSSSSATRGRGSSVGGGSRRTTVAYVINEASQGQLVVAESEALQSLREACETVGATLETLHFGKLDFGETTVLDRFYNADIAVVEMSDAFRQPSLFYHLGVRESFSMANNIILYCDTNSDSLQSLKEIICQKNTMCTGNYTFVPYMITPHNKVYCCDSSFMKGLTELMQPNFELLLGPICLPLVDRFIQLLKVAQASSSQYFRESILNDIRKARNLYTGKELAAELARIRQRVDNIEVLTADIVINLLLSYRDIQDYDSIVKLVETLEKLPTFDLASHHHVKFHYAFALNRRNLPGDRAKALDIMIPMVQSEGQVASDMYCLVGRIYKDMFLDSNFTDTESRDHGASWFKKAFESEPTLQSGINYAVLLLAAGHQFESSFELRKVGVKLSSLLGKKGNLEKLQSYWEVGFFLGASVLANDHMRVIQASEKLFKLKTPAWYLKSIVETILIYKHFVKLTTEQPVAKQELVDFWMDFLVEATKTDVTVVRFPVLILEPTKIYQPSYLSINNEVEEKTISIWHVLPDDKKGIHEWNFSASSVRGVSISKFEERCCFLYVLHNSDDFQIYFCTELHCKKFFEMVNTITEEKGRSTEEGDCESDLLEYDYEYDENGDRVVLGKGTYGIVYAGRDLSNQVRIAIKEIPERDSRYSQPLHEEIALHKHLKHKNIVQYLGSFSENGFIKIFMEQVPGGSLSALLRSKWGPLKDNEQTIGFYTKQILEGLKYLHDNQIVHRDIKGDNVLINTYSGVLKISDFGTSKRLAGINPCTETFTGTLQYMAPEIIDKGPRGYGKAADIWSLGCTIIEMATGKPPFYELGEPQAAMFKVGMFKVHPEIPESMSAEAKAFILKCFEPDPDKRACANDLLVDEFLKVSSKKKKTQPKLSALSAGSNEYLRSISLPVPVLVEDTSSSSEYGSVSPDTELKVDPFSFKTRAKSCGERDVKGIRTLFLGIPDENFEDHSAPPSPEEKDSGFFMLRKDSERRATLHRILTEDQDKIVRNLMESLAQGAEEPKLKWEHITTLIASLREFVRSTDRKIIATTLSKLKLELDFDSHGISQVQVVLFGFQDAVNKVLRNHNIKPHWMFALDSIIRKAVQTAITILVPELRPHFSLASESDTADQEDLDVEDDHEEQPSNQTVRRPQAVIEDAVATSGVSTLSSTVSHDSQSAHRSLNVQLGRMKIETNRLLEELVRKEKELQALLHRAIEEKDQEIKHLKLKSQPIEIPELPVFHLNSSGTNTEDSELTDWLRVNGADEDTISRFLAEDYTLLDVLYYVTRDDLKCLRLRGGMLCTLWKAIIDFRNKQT

The test addresses ASK1 (Homo sapiens (Human), UniProt Q99683). The test can be described thus: ASK1 kinase inhibition, HTRF KinEASE Assay System (TR-FRET). It counts as biochemical. The following applies: 5 nM ASK1 kinase, 1 uM STK3 peptide substrate, 100 uM ATP, 3 hours. The protocol: The ability (IC50) of compounds to inhibit ASK1 kinase activity was determined by HTRF® KinEASE™ Assay System.
ASK1 was purchased from Thermofisher (Catalogue # PV401.1), ATP was purchased from Sigma (Catalogue # A7699), HTRF® KinEASE™ Assay System was obtained from Cisbio (Bedford, Mass). ½ Area plate was purchased from Perkin Elmer (Catalogue # #6005560). HTRF® KinEASE™-STK is a generic method for measuring serine/threonine kinase activities using a time-resolved fluorescence resonance energy transfer (TR-FRET) immunoassay. The IC50 value for each compound was determined in the presence of compound (various concentration from 0 to 10 μM) and a fixed amount of ATP and peptide substrates. The test compound, luM STK3 peptide substrate, and 5 nM of ASK1 kinase are incubated with kinase reaction buffer containing 50 mM HEPES pH 7.5, 0.01% BRIJ-35, 10 mM MgCl2, and 1 mM EGTA for 30 minutes. 100 uM ATP is added to start kinase reaction and incubated for 3 hours. The STK3-antibody labeled with Eu^3+-Cryptate and 125 nM streptavidin-XL665 are mixed in a single addition with stop reagents provided by the Cisbio kit used to stop the kinase reaction. Fluorescence is detected using an Envision Multilabeled 2014 reader from PerkinElmer. The Fluorescence is measured at 615 nm (Cryptate) and 665 nm (XL665) and a ratio of 665 nm/615 nm is calculated for each well. The resulting TR-FRET is proportional to the phosphorylation level. Staurosporine was used as the positive control. IC50 was determined by XLfit 5.3.
By using above method, the inhibition of ASK1 was tested for the compound of formula (I). IC50 ranges are as follows: A<1 nM; 1 nM<B<10 nM; 10 nM<C<100 nM; 100 nM<D
(In general: TR-FRET usually uses a lanthanide donor and a delayed reading to cut background.)
With `Cc1cc(F)c(C(=O)Nc2cccc(-c3nnnn3C3CC(F)(F)C3)n2)cc1-n1cnc(C2CC2)c1` [Example 11a], the IC50 fell in the range of 1 to 10 nM.
`CC(C)n1nnnc1-c1cccc(NC(=O)c2cc(-n3cnc(C4CC4)c3)c(N3CCOCC3)cn2)n1` [Example 46a] registered an IC50 of 1 to 10 nM.
Next, `CC(=O)OC[C@H](C)n1nnnc1-c1cccc(NC(=O)c2cc(-n3cnc(C4CC4)c3)c(C)cc2F)n1` [Example 4a, (S)-2-(5-(6-(5-(4-cyclopropyl-1H-imidazol-1-yl)-2-fluoro-4-methyl-benzamido)pyridin-2-yl)-1H-tetrazol-1-yl)propyl acetate]: 1 to 10 nM.
Next, `CC(C)n1nnnc1-c1nc(NC(=O)c2cc(-n3cnc(C4CC4)c3)c(N3CCCCC3)cn2)cs1` [Example 41a]: 10 to 100 nM.
In turn, `Cc1cc(F)c(C(=O)Nc2cccc(-c3nnnn3C3CCCC3)n2)cc1-n1cnc(C2CC2)c1` [Example 8a] showed an IC50 of 1 to 10 nM.
Next, `CC(C)n1nnnc1-c1cccc(NC(=O)c2cc(-n3cnc(C4CC4)c3)c(C(F)(F)F)cc2F)n1` [Example 37a]: 1 to 10 nM.
Next, `CC(C)n1nnnc1-c1cccc(NC(=O)c2cc(-n3cnc(C4CC4)c3)c(C(F)(F)F)cn2)n1` [Example 57a]: 1 to 10 nM.
The value for `CC(C)n1nnnc1-c1nc(NC(=O)c2cc(-n3cnc(C4CC4)c3)c(N3CCCC3)cn2)cs1` [Example 42a] was 1 to 10 nM.
The compound `CC(=O)OC[C@@H](C)n1nnnc1-c1cccc(NC(=O)c2cc(-n3cnc(C4CC4)c3)c(C)cc2F)n1` [Example 6a, (R)-2-(5-(6-(5-(4-cyclopropyl-1H-imidazol-1-yl)-2-fluoro-4-methyl-benzamido)pyridin-2-yl)-1H-tetrazol-1-yl)propyl acetate] displayed an IC50 above 100 nM.
Next, `Cc1cc(F)c(C(=O)Nc2cccc(-n3nnnc3C(C)C)n2)cc1-n1cnc(C(C)(C)C)c1` [Example 6b]: 1 to 10 nM; `Cc1cnc(C(=O)Nc2cccc(-c3nnnn3C(C)C)n2)cc1-n1cnc(C(C)(C)C)c1` [Example 52a]: 1 to 10 nM; `COc1cc(C)c(-n2cnc(C3CC3)c2)cc1C(=O)Nc1cccc(-c2nnnn2C(C)C)n1` [Example 60a]: 1 to 10 nM.
The value for `Cc1cnc(C(=O)Nc2cccc(-c3nnnn3[C@H](C)CO)n2)cc1-n1cnc(C(C)(C)C)c1` [Example 53a] was 1 to 10 nM.
In turn, `Cc1cc(F)c(C(=O)Nc2cccc(-c3nnnn3C(C)C)n2)cc1-n1cnc(C2CC2)c1` [Example 1a, 5-(4-cyclopropyl-1H-imidazol-1-yl)-2-fluoro-N-(6-(1-isopropyl-1H-tetrazol-5-yl)pyridin-2-yl)-4-methylbenzamide] displayed an IC50 of 1 to 10 nM.
Next, `Cc1cc(F)c(C(=O)Nc2cccc(-c3nnnn3[C@H](C)CF)n2)cc1-n1cnc(C2CC2)c1` [Example 14a]: 1 to 10 nM.
The value for `Cc1cc(F)c(C(=O)Nc2cccc(-n3nnnc3C(C)C)n2)cc1-n1cnc(C(F)(F)F)c1` [Example 2b] was above 100 nM; that for `Cc1cc(F)c(C(=O)Nc2cccc(-c3nnnn3CC(C)(C)C)n2)cc1-n1cnc(C2CC2)c1` [Example 13a] was 1 to 10 nM; that for `C[C@H](CO)n1nnnc1-c1cccc(NC(=O)c2cc(-n3cnc(C4CC4)c3)c(CO)cc2F)n1` [Example 33a, (R)-5-(4-cyclopropyl-1H-imidazol-1-yl)-2-fluoro-4-(hydroxymethyl)-N-(6-(1-(1-hydroxypropan-2-yl)-1H-tetrazol-5-yl)pyridin-2-yl)benzamide] was 1 to 10 nM.
